According to publication PMC8179049 (Chemical Science, 2020):
Where “and” joins values, the source holds several entries; their conditions need not be identical. Equal values may be shown once. Read-outs that look alike come from different tables or passages of the source.

Tests used:
[1] = target: T1, human AspH (His6-AspH315-758) (Homo sapiens, UniProt Q12797); assay: NMR monitoring of AspH-catalyzed oxidative decarboxylation, with final SPE-MS analysis; assay type: biochemical; details: for time to complete AspH-catalyzed oxidative decarboxylation (NMR) / hydroxylation (conversion) of hFX-CP101-119 in the final reaction mixture by SPE-MS: 10 μM AspH, 150 μM cosubstrate; for AspH-catalyzed oxidative decarboxylation of the 2OG derivative (NMR): 10 μM His6-AspH315-758, 150 μM hFX-CP101-119, 150 μM 2OG derivative, 50 μM FAS, pH 7.5, 25 °C
T1 construct: N-Terminally His6-tagged human AspH315-758 (His6-AspH315-758) was produced in Escherichia coli BL21 (DE3); made in house; host or cells: Escherichia coli BL21 (DE3), pET-28a(+) vector
T1 sequence (Q12797 315-758): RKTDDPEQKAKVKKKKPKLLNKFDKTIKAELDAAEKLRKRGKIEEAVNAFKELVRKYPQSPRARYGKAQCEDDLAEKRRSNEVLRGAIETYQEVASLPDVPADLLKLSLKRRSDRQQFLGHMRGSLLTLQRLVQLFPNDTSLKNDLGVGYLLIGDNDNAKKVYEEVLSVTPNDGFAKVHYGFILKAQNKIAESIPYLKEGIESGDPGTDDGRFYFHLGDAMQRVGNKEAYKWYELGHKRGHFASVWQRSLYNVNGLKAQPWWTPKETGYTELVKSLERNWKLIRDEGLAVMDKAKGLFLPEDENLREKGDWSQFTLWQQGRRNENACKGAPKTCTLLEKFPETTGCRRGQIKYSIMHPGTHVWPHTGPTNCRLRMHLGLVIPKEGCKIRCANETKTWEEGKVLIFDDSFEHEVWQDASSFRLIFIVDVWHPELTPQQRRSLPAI
Method: 2-methylsuccinate and terephthalate, respectively (continues on the following two pages). The AspH- […]
700 NMR machine equipped with a 5mm 1H(13C/15N) inverse cryoprobe. Assay conditions: 10 μM His6-AspH315- […]
iron(II) sulfate hexahydrate (FAS, (NH4)2Fe(SO4)2·6H2O) in 50 mM aqueous Tris-d11 containing 10 %v/v D2O (pH […]
product of the AspH-catalyzed reaction, was determined using SPE-MS (Supporting Information, Section 9) after […]
of the 1H NMR spectrum of commercial succinate in 50 mM aqueous Tris-d11 containing 10 %v/v D2O (pH 7.5, 25° […]
(1 picture or pasted object on this page, not shown here) […]
using a Bruker AVIII 700 NMR machine equipped with a 5mm 1H(13C/15N) inverse cryoprobe. Assay conditions: […]
ammonium iron(II) sulfate hexahydrate (FAS, (NH 4)2Fe(SO4)2·6H2O) in 50 mM aqueous Tris -d11 containing […]
which is the product of the AspH-catalyzed reaction, was determined using SPE-MS (Supporting Information, Section 9) after completion of the NMR experiments. […]
spectrum of synthetic 34 in 50 mM aqueous Tris-d11 containing 10 %v/v D2O (pH 7.5, 25° C); (b) Close-up (3.0-0.9 ppm) of the 1H NMR spectrum of commercial 2,2-dimethylsuccinate (52) in 50 mM aqueous Tris-d11

[2] = target: T2, human AspH (Homo sapiens, UniProt Q12797); assay: SPE-MS AspH turnover assay in the absence of 2OG (2OG derivative as cosubstrate); details: 330 μM 2OG or 2OG derivative, 0.1 μM AspH, 2 μM hFX-CP101-119, 50 μM FAS, t = 15 min;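 note: percent conversion = hydroxylated cyclic peptide peak area relative to summed substrate plus product areas, taken from +2 charge state ion chromatograms by solid phase extraction MS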
T2 sequence (Q12797 315-758): T1 sequence (Q12797 315-758)
Method: AspH assays were performed as described in the ESI, ^† data are shown as the mean of three independent runs (n = 3; mean ± standard deviation, SD).
AspH assays were performed as described in Section 9 of the Supporting Information using 0.1 μM AspH, 2 μM
a positive control in the SPE-MS AspH turnover assays (Entry 1).
dependent conversion of the AspH substrate hFX-CP101-119 (Supporting Figure S1d). %-Substrate conversion is
AspH assays were performed as
described in Section 9 of the Supporting Information using 0.1 μM AspH, 2 μM hFX-CP101-119, 50 μM FAS, 330
AspH inhibition assays were incubated for 6 rather than 7 minutes before the enzyme reaction was
stopped by the addition of 10%v/v aqueous formic acid.
MS-analyses were performed using a RapidFire RF 365 high-throughput sampling robot (Agilent) attached to an
iFunnel Agilent 6550 accurate mass quadrupole time-of-flight (Q-TOF) mass spectrometer operated in the positive
ionization mode. Assay samples were aspirated under vacuum for 0.4 s and loaded onto a C4 solid phase extraction (SPE) cartridge. After loading, the C4 SPE cartridge was washed with 0.1%v/v aqueous formic acid to remove
non-volatile buffer salts (5 s, 1.5 mL/min). The peptide was eluted from the SPE cartridge with 0.1%v/v aqueous
formic acid in 85/15v/v acetonitrile/water into the mass spectrometer (5 s, 1.25 mL/min) and the SPE cartridge re-
equilibrated with 0.1%v/v aqueous formic acid (1 s, 1.25 mL/min). The mass spectrometer parameters were:
capillary voltage (4000 V), nozzle voltage (1000 V), fragmentor voltage (365 V), gas temperature (280°C), gas
flow (13 L/min), sheath gas temperature (350°C), sheath gas flow (12 L/min). The m/z +2 charge states of the
cyclic peptide (substrate) and the hydroxylated cyclic peptide (product) were used to extract ion chromatogram
data, peak areas were integrated using RapidFire Integrator software (Agilent). Data were exported into Microsoft
Excel and used to calculate the % conversion of the hydroxylation reaction using the equation: % conversion =
100 x (integral product cyclic peptide) / (integral substrate cyclic peptide + integral product cyclic peptide).
Normalized dose-response curves (2,4-PDCA and DMSO controls) were obtained from the raw data by non-linear
regression (GraphPad Prism 5) and used to determine IC50-values. The standard deviation (SD) of three
independent IC50 determinations (n = 3) was calculated using GraphPad Prism 5. Z’-factors were calculated
according to the cited literature using Microsoft Excel (Supporting Figure S3).14

[3] = target: T1, human AspH (His6-AspH315-758); assay: SPE-MS AspH inhibition assay; assay type: biochemical; details: mean ± SD, n = 3
Method: 6. Recombinant AspH production and purification
N-Terminally His6-tagged human AspH315-758 (His6-AspH315-758) was produced in Escherichia coli BL21 (DE3) cells using a pET-28a(+) vector and purified by Ni(II)-affinity chromatography (HisTrap HP column, GE Healthcare; 1 mL/min flow rate) and size-exclusion chromatography (HiLoad 26/60 Superdex 75 pg 300 mL column; 1 mL/min) using an ÄKTA pure machine (GE Healthcare) as previously reported.1,4 AspH was >95% pure by SDS-PAGE and MS analysis and had the anticipated mass (calculated for His6-AspH315-758: 54519 Da, found: 54519 Da).1 Purified AspH was stored in 50 mM HEPES buffer (pH 7.5, 150 mM NaCl) at a concentration of 125 μM at -78 °C; fresh aliquots were used for all AspH assays.
7. AspH substrate synthesis
AspH substrates were designed based on the sequence of EGFD1 of human coagulation factor X (hFX amino acids 86-124), which is a reported cellular AspH substrate.2 All substrates were prepared with a C-terminal amide.
The hFX-EGFD186-124-4Ser peptide (hFX amino acids 86-124; Supporting Figure S1c),1 used for crystallography experiments, was synthesized by solid phase peptide synthesis (SPPS) and purified by GL Biochem (Shanghai) Ltd (Shanghai, China). The thioether linked cyclic peptide hFX-CP101-119 (hFX amino acids 101-119; Supporting
Figure S1d), which was used as substrate in AspH SPE-MS assays,4 was synthesized by an intramolecular thioetherification cyclization reaction from the corresponding linear peptide (D-Ala replacing Cys101hFX and Ser replacing Cys112hFX) which was obtained by microwave-assisted solid phase peptide synthesis using the Fmoc-protection strategy as described.4
8. AspH inhibition assays […]
water; ammonium iron(II) sulfate hexahydrate, FAS, (NH 4)2Fe(SO4)2·6H2O: 400 mM in 20 mM HCl diluted to 1 mM in Milli-Q® Ultrapure water) were freshly prepared each day from commercially sourced solids (Sigma […]
(Greiner) in an approximately three-fold and 11-point dilution series (100 μM top concentration) using an ECHO 550 acoustic dispenser (Labcyte). DMSO and 2,4 -PDCA were used as negative and positive controls , respectively .
The final DMSO concentration was kept constant at 0.5%v/v throughout all experiments (using the DMSO backfill option of the acoustic dispenser). Each reaction was performed in technical duplicates in adjacent wells of the assay plates; additionally, assays were performed in three independent technical duplicates on different days using different DMSO inhibitor solutions. […]
dispensed across the inhibitor-containing 384-well assay plates with a multidrop dispenser (ThermoFischer Scientific) at 20°C under an ambient atmosphere. The plates were subsequently centrifuged (1000 rpm, 30 s) and incubated for 15 minutes at 20°C. The Substrate Mixture (25 μL/well), containing 2.0 μM hFX-CP101-119, 200 μM […]
Note: The multidrop dispenser ensured proper mixing of the Enzyme and the Substrate Mixtures which was essential for assay reproducibility. The plates were centrifuged (1000 rpm, 30 s) and af ter incubating for 7 minutes, […]
centrifuged (1000 rpm, 60 s) and analysed by MS.
(§1) The mass spectrometer parameters were:
(§2) Data were exported into Microsoft
(§3) The standard deviation (SD) of three
(§4) Z’-factors were calculated
9. Determination of kinetic parameters […]
(§5) in 50 mM HEPES buffer (pH 7.5).

[4] = target: T1, human AspH (His6-AspH315-758); assay: AspH steady-state kinetics by SPE-MS turnover assays; assay type: biochemical; details: for K app m / v app max: 0.1 μM His6-AspH315–758, 2.0 μM hFX-CP101–119, in the presence of LAA, mean ± SD, n = 3
Method: Supporting Figure S6. Initial hydroxylation rates of AspH-catalyzed peptide hydroxylations used to
Measurement times were normalized to the first sample injection analyzed after the addition of the Enzyme
as §1, §2, §3, §4
9. Determination of kinetic parameters
as §5

[5] = target: T1, human AspH (His6-AspH315-758); set-up: method as in PMID 33069066; details: ref 41a; read-out: IC50 (inhibition of AspH, literature); cited from earlier work
[6] = target: T1, human AspH (His6-AspH315-758); set-up: method as in PMID 32107312; details: cited from earlier work
[7] = system: glutamic oxaloacetic aminotransferase; set-up: method as in doi:10.1002/1615-4169(200108)343:6/7<692::AID-ADSC692>3.0.CO; details: cited from earlier work
[8] = 50 nM His6-AspH315–758, 1.0 μM hFX-CP101–119, 3 μM 2OG
[9] = 50 nM His6-AspH315–758, 1.0 μM hFX-CP101–119, 3 μM 2OG, read-out: IC50 (inhibition of AspH)

Row | time to complete AspH-catalyzed oxidative decarboxylation (NMR) [1] [min] | AspH-catalyzed substrate conversion (hydroxylation of hFX-CP101-119) [2] [%] | IC50 [3, 9] | K app m [4] [µM] | v app max [4] [µM/s] | melting point | SMILES | further results
1 | ≤ 5 | > 95 | > 50 µM | 0.27 ± 0.04 | 0.0069 ± 0.0002 |  | CC(CC(=O)O)C(=O)C(=O)O (stereo not drawn) [compound 16, 3-methyl-2OG] | IC50 (inhibition of AspH) [3, 8]: Inactive
2 |  |  |  |  |  |  | O=C(O)c1ccnc(C(=O)O)c1 [2,4-PDCA, pyridine-2,4-dicarboxylate] | IC50 [5]: ~0.03 µM
3 | ≤ 5 |  |  | 1.3 ± 0.3 | 0.015 ± 0.0009 |  | O=C(O)CCC(=O)C(=O)O [2OG, 2-Oxoglutarate, reference compound] | hydroxylation (conversion) of hFX-CP101-119 in the final reaction mixture by SPE-MS ([1]; t = 5 min): > 95%; K app m (2OG) in the absence of LAA [6]: ~0.6 µM; v app max (2OG) in the absence of LAA [6]: ~0.0168 µM/s; k cat [4]: 0.17 ± 0.03 s⁻¹
4 |  |  |  |  |  |  | O=C(O)C(=O)N[C@H](Cc1ccccc1)C(=O)O [NOFD, N-oxalyl-D-phenylalanine] | IC50 [5]: ~15.5 µM
5 | ≤ 5 | ~80 |  | 61.9 ± 11.0 | 0.004 ± 0.0003 | > 350 °C (dec.) | O=C(O)C(=O)c1ccc(C(=O)O)cc1 [compound 41, 4-carboxyphenylglyoxylic acid] | IC50 (inhibition of AspH) [3, 8]: did not inhibit; IC50 (inhibition of AspH) ([3]; 50 nM His6-AspH315–758, 1.0 μM hFX-CP101–119, 3 μM 2OG, listed as C00012): Inactive; K app m relative to that for 2OG (times higher) ([4]; ratio to K app m of 2OG): ~47
6 |  | < 1 | ~0.3 µM and 0.3 µM |  |  |  | CC(C)(CC(=O)C(=O)O)C(=O)O [compound 34, 4,4-Dimethyl-2OG] | substitution for 2OG in transamination reactions [7]: does not efficiently substitute for 2OG; AspH-catalyzed oxidative decarboxylation of the 2OG derivative (NMR) [1]: undergoes slow AspH-catalyzed oxidative decarboxylation; hydroxylation (conversion) of hFX-CP101-119 in the final reaction mixture by SPE-MS ([1]; t = 15 h): ~ 95%; IC50 ([3]; 50 nM His6-AspH315-758, 1.0 μM hFX-CP101-119, read-out: IC50 (ESI Fig. S4)): 0.31 ± 0.1 µM; IC50 ([3]; IC50 at 200 μM 2OG (ESI Table S1), assay concentration of 200 μM 2OG): 6.4 ± 0.4 µM; IC50 ([3]; IC50 at 400 μM 2OG (ESI Table S1), assay concentration of 400 μM 2OG): 10 ± 3.1 µM; IC50 ([3]; IC50 at 600 μM 2OG (ESI Table S1), assay concentration of 600 μM (0.6 mM) 2OG): 18.7 µM and ~18.7 µM
7 |  | < 1 | 0.43 ± 0.05 µM |  |  | > 240 °C (dec.) | O=C(O)C(=O)CC(Cc1ccccc1)C(=O)O (stereo not drawn) [compound 32, 4-benzyl-2OG] | AspH-catalyzed oxidative decarboxylation of the 2OG derivative (NMR) [1]: apparently not turned over
8 |  | < 1 | 6.3 ± 2.6 µM |  |  | > 260 °C (dec.) | O=C(O)CC(Cc1ccc(OC(F)(F)F)cc1)C(=O)C(=O)O (stereo not drawn) [compound 23] | 
